# Assay results as given in patent publication US9801878B2, “Quinoline derivatives as PDE10A enzyme inhibitors” (H. Lundbeck A/S, priority 2011, dated 2017).
# How the values were obtained:
# [1] = rats, cited from earlier work
# [2] = rats; cited from earlier work
# [3] = rats; cited from earlier work; remark: listed apart in the source
# [4] = molecular target: PDE10A enzyme (Homo sapiens (Human), UniProt Q9Y233); assay: PDE10A inhibition assay; type: biochemical
# Procedure: Active PDE10A enzyme is prepared in a number of ways for use in PDE assays (Loughney, K. et al. Gene 1999, 234, 109-117; Fujishige, K. et al. Eur J Biochem. 1999, 266, 1118-1127 and Soderling, S. et al. Proc. Natl. Acad. Sci. 1999, 96, 7071-7076). PDE10A can be expressed as full-length proteins or as truncated proteins, as long as they express the catalytic domain. PDE10A can be prepared in different cell types, for example insect cells or E. coli. […]
# A PDE10A assay may for example, be performed as follows: The assay is performed in 60 uL samples containing a fixed amount of the relevant PDE enzyme (sufficient to convert 20-25% of the cyclic nucleotide substrate), a buffer (50 mM HEPES7.6; 10 mM MgCl2; 0.02% Tween20), 0.1 mg/ml BSA, 225 pCi of ^3H-labelled cyclic nucleotide substrate, tritium labeled cAMP to a final concentration of 5 nM and varying amounts of inhibitors. […] The beads are allowed to settle for one hr in the dark before the plates are counted in a Wallac 1450 Microbeta counter. The measured signal can be converted to activity relative to an uninhibited control (100%) and IC50 values can be calculated using the Xlfit extension to EXCEL.
# PDE10A enzyme, sequence (Q9Y233 716-1055): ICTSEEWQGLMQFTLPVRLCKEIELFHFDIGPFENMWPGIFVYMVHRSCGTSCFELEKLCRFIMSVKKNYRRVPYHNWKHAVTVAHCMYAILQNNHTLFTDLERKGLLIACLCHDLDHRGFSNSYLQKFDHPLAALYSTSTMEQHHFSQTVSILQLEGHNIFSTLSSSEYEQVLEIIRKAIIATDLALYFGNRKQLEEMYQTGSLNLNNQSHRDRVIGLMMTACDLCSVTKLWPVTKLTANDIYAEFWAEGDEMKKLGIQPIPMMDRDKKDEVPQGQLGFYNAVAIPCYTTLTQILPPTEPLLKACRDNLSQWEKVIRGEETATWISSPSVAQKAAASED
SMILES,catalepsy on its own ([1]; alone),cataleptic effect of the D2 receptor antagonist haloperidol ([1]; with haloperidol),hyperactivity induced by PCP [2],reduction of amphetamine induced hyperactivity [3],IC50 [4]
COc1ccc(Cc2nccc3cc(OC)c(OC)cc23)cc1OC [Papaverine],did not cause catalepsy on its own,potentiated the cataleptic effect,reduced hyperactivity,insignificant,
"Cc1ncc(C)n2nc(CCc3ccc4ccccc4n3)nc12 [2-[2-(5,8-Dimethyl-[1,2,4]triazolo[1,5-a]pyrazin-2-yl)-ethyl]-quinoline]",,,,,7.4 nM
